These results are taken from ChEMBL document CHEMBL3045418, “Design, synthesis and antidepressant activity evaluation 2-hydroxy-4,6-diisoprenyloxychalcone derivatives” (2013).

Common to all, as to assay type: functional
What all share (settings): route intraperitoneal

Assay [1] has as its system Mus musculus. The assay can be described thus: Increase in yohombine-induced mortality in Kunming Mus musculus (mouse) at 30 mg/kg, ip administered for 1 hr prior to yohombine challenge measured after 24 hr (reference value: 20%).
The test system of assay [2] is Mus musculus. The assay can be described thus: Antidepressant activity in Kunming Mus musculus (mouse) assessed as immobility time at 10 mg/kg, ip administered 30 min prior to testing measured after 2 to 6 min by tail suspension test (reference value: 130.5 +/- 9.6 secs).
In assay [3] the test system is Mus musculus. The assay can be described thus: Antidepressant activity in Kunming Mus musculus (mouse) assessed as immobility time at 10 mg/kg, ip administered 30 min prior to testing measured after 2 to 6 min by forced swimming test (reference value: 116.7 +/- 12.3 secs).

In the assay on Mus musculus [1], `CN(C)CCCN1c2ccccc2CCc2ccc(Cl)cc21` [CLOMIPRAMINE] returned a mortality at 30 mg/kg of 80%. As for `CNCCC(Oc1ccc(C(F)(F)F)cc1)c1ccccc1` (stereo not drawn) [FLUOXETINE], the figures for the Time with Mus musculus [2] and in the assay on Mus musculus [3] were 75.6 s and 68.6 s, respectively.
